Measured values taken from article PMC6943496, “Antiplasmodial Activity of Nitroaromatic Compounds: Correlation with Their Reduction Potential and Inhibitory Action on Plasmodium falciparum Glutathione Reductase” (Molecules, 2019).

target: T1, P. falciparum glutathione reductase (PfGR) (Plasmodium falciparum, UniProt Q94655); assay: GSH-mediated DTNB reduction at […] nm, Cleland plot; format: biochemical
T1 construct: gene GR; 2 x 55 kD homodimer with FAD
T1 sequence (Q94655 2-500): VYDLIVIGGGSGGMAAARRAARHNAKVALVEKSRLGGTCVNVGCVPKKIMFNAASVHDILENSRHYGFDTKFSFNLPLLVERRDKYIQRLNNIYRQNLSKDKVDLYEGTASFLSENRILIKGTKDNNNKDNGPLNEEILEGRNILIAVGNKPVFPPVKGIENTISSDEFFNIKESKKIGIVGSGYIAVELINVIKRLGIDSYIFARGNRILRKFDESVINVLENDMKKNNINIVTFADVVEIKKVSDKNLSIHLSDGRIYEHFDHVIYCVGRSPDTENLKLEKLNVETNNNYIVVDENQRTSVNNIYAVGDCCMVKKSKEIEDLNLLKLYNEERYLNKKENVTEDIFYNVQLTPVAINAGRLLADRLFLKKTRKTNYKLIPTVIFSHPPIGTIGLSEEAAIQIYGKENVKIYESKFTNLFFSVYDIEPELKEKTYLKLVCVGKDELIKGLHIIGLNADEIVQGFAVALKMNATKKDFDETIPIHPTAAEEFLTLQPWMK

Question: For `NC(=O)c1cc(N2CC2)c([N+](=O)[O-])cc1[N+](=O)[O-]` [compound 3, 5-(Aziridin-1-yl)-2,4-dinitrobenzamide], which Ki is on record?
Answer: 350 ± 40 µM

target: T1, P. falciparum glutathione reductase (PfGR); assay: NADPH oxidation at […] nm, Cleland plot ([…]/kcat vs [I]); format: biochemical

Question: How did the Ki turn out when `O=C(O)c1ccc([N+](=O)[O-])cc1` [compound 2, 4-Nitrobenzoic acid] was run?
Answer: 1200 ± 180 µM

Question: `CC(=O)c1ccc([N+](=O)[O-])cc1` [compound 4, 4-Nitroacetophenone] was tested. Which Ki did it give?
Answer: 70 ± 11 µM

Question: `O=Cc1ccc([N+](=O)[O-])cc1` [compound 7, 4-Nitrobenzaldehyde] was tested. Which Ki did it give?
Answer: 25 ± 4 µM

Question: For `O=C1CN(/N=C/c2ccc([N+](=O)[O-])o2)C(=O)N1` [compound 10, Nitrofurantoin], which Ki is on record?
Answer: 9 ± 1 µM

Question: How did the Ki turn out when `O=[N+]([O-])c1ccc(/C=N/O)o1` [compound 11, Nifuroxime] was run?
Answer: 32 ± 5 µM
